Reference: article PMC9090415, “Discovery of small molecule inhibitors of Plasmodium falciparum apicoplast DNA polymerase” (Journal of Enzyme Inhibition and Medicinal Chemistry, 2022)

Molecular target: P. falciparum apicoplast DNA polymerase (Pf-apPOL) (Plasmodium falciparum, UniProt Q8ILY1)
Test: Fluorescence-based high-throughput DNA polymerase assay (molecular beacon), primary screen and dose-response
Format: biochemical
Conditions: for DNA Pol: 90 min, 10 µM; for % inhibition apPOL 180' 2.5 / % inhibition apPOL 180' 5 / % inhibition apPOL 180' 10 / % inhibition apPOL 180' 20 / % inhibition apPOL 180' 40 / % inhibition apPOL 180' 80: read at 180'
Method in brief: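 Single-point screening used 10 µM compound with 20 nM polymerase, 20 nM hairpin substrate and 6 µM dNTPs for 90 min at 25 °C. Confirmatory titrations (2.5–80 µM) followed fluorescence at three times, and IC50 was derived from a fit including a cooperativity term n.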

[1] = 'DNA Pol' of the 186 hits list (primary screen value)

Chain of P. falciparum apicoplast DNA polymerase (Pf-apPOL) (Q8ILY1 entry or part of it): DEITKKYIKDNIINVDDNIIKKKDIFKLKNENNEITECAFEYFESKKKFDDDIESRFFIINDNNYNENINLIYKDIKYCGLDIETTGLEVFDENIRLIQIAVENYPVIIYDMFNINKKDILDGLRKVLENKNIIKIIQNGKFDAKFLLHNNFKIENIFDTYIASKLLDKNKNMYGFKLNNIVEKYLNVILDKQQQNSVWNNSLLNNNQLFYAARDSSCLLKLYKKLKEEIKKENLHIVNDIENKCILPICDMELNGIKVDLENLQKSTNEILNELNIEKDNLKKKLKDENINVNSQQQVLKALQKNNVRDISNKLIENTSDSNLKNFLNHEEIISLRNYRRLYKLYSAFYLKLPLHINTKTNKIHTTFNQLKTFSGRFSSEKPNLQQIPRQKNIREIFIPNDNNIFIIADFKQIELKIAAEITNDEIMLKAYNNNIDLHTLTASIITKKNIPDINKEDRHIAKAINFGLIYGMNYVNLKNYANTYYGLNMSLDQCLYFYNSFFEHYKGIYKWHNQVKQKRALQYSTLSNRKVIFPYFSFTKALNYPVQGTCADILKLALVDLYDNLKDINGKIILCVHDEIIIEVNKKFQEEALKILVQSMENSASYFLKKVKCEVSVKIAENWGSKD

Cc1nc(C)c2c(n1)N(CC1CCCCC1)C(=O)CC2 [KU0218606]
DNA Pol (186 hits, DNA Pol (screen value), unit not given): 50 | DNA Pol ('DNA Pol' (screen value), unit not given): 50 | % inhibition Apo pol 10' 2.5 (DRC-1, read at 10', concentration 2.5): 34.0428% | % inhibition Apo pol 10' 5 (DRC-1, read at 10', concentration 5): 39.9001% | % inhibition Apo pol 10' 10 (DRC-1, read at 10', concentration 10): 47.3749% | % inhibition Apo pol 10' 20 (DRC-1, read at 10', concentration 20): 48.9825% | % inhibition Apo pol 10' 40 (DRC-1, read at 10', concentration 40): 54.7667% | % inhibition Apo pol 10' 80 (DRC-1, read at 10', concentration 80): 55.4322% | % inhibition Apol 90' 2.5 (DRC-1, read at 90', concentration 2.5): 24.6813% | % inhibition Apol 90' 5 (DRC-1, read at 90', concentration 5): 31.9392% | % inhibition Apol 90' 10 (DRC-1, read at 90', concentration 10): 42.478% | % inhibition Apol 90' 20 (DRC-1, read at 90', concentration 20): 47.74% | % inhibition Apol 90' 40 (DRC-1, read at 90', concentration 40): 54.1171% | % inhibition Apol 90' 80 (DRC-1, read at 90', concentration 80): 56.5278% | % inhibition apPOL 180' 2.5 (DRC-1, concentration 2.5): 16.0854% | % inhibition apPOL 180' 5 (DRC-1, concentration 5): 24.5851% | % inhibition apPOL 180' 10 (DRC-1, concentration 10): 35.963% | % inhibition apPOL 180' 20 (DRC-1, concentration 20): 43.6778% | % inhibition apPOL 180' 40 (DRC-1, concentration 40): 53.1041% | % inhibition apPOL 180' 80 (DRC-1, concentration 80): 57.3534% | % inhibition Apo pol 5' (DRC-2, concentration 5): 24% | % inhibition Apo pol 5' (DRC-2, concentration 20): 27% | % inhibition Apo pol 5' (DRC-2, concentration 40): 30% | % inhibition Apo pol 5' (DRC-2, concentration 80): 27% | % inhibition Apol 40' (DRC-2, concentration 2.5): 24% | % inhibition Apol 40' (DRC-2, concentration 5): 30% | % inhibition Apol 40' (DRC-2, concentration 40): 42% | % inhibition ApPOL 90' (DRC-2, concentration 10): 38% | % inhibition ApPOL 90' (DRC-2, concentration 20): 42% | % inhibition apPOL 180' (DRC-2, concentration 20): 38% | % inhibition apPOL 180' (DRC-2, concentration 40): 42% | % inhibition Apo pol 5' 2.5 (DRC-2, read at 5', concentration 2.5): 20% | % inhibition Apo pol 5' 5 (DRC-2, read at 5', concentration 5): 24% | % inhibition Apo pol 5' 10 (DRC-2, read at 5', concentration 10): 28% | % inhibition Apo pol 5' 20 (DRC-2, read at 5', concentration 20): 27% | % inhibition Apo pol 5' 40 (DRC-2, read at 5', concentration 40): 30% | % inhibition Apo pol 5' 80 (DRC-2, read at 5', concentration 80): 27% | % inhibition Apol 40' 2.5 (DRC-2, read at 40', concentration 2.5): 24% | % inhibition Apol 40' 5 (DRC-2, read at 40', concentration 5): 30% | % inhibition Apol 40' 10 (DRC-2, read at 40', concentration 10): 36% | % inhibition Apol 40' 20 (DRC-2, read at 40', concentration 20): 39% | % inhibition Apol 40' 40 (DRC-2, read at 40', concentration 40): 42% | % inhibition Apol 40' 80 (DRC-2, read at 40', concentration 80): 41% | % inhibition ApPOL 90' 2.5 (DRC-2, read at 90', concentration 2.5): 25% | % inhibition ApPOL 90' 5 (DRC-2, read at 90', concentration 5): 31% | % inhibition ApPOL 90' 10 (DRC-2, read at 90', concentration 10): 38% | % inhibition ApPOL 90' 20 (DRC-2, read at 90', concentration 20): 42% | % inhibition ApPOL 90' 40 (DRC-2, read at 90', concentration 40): 45% | % inhibition ApPOL 90' 80 (DRC-2, read at 90', concentration 80): 47% | % inhibition apPOL 180' 2.5 (DRC-2, concentration 2.5): 18% | % inhibition apPOL 180' 5 (DRC-2, concentration 5): 26% | % inhibition apPOL 180' 10 (DRC-2, concentration 10): 34% | % inhibition apPOL 180' 20 (DRC-2, concentration 20): 38% | % inhibition apPOL 180' 40 (DRC-2, concentration 40): 42% | % inhibition apPOL 180' 80 (DRC-2, concentration 80): 46%

Cl.NC(CO)C(=O)NNCc1ccc(O)c(O)c1O (centres unmarked) [KU0260493]
DNA Pol [1]: 84 | DNA Pol (DNA Pol (primary screen value)): 84 | % inhibition Apo pol 10' (DRC-1, concentration 2.5): 2.4672% | % inhibition Apo pol 10' (DRC-1, concentration 5): 2.015% | % inhibition Apo pol 10' (DRC-1, concentration 10): 15.4444% | % inhibition Apo pol 10' (DRC-1, concentration 20): 26.1922% | % inhibition Apo pol 10' (DRC-1, concentration 40): 36.4325% | % inhibition Apo pol 10' (DRC-1, concentration 80): 40.9646% | % inhibition Apol 90' (DRC-1, concentration 2.5): -5.483% | % inhibition Apol 90' (DRC-1, concentration 5): -0.705% | % inhibition Apol 90' (DRC-1, concentration 10): 31.8192% | % inhibition Apol 90' (DRC-1, concentration 20): 46.4998% | % inhibition Apol 90' (DRC-1, concentration 40): 57.8018% | % inhibition Apol 90' (DRC-1, concentration 80): 63.3107% | % inhibition apPOL 180' (DRC-1, concentration 2.5): -3.278% | % inhibition apPOL 180' (DRC-1, concentration 5): 12.5243% | % inhibition apPOL 180' (DRC-1, concentration 10): 43.7705% | % inhibition apPOL 180' (DRC-1, concentration 20): 57.9843% | % inhibition apPOL 180' (DRC-1, concentration 40): 66.1218% | % inhibition apPOL 180' (DRC-1, concentration 80): 68.6937% | % inhibition Apo pol 5' (DRC-2, concentration 2.5): -5.63% | % inhibition Apo pol 5' (DRC-2, concentration 5): 3.49% | % inhibition Apo pol 5' (DRC-2, concentration 10): 23% | % inhibition Apo pol 5' (DRC-2, concentration 20): 36% | % inhibition Apo pol 5' (DRC-2, concentration 40): 47% | % inhibition Apo pol 5' (DRC-2, concentration 80): 54% | % inhibition Apol 40' (DRC-2, concentration 2.5): -1.63% | % inhibition Apol 40' (DRC-2, concentration 5): 15% | % inhibition Apol 40' (DRC-2, concentration 10): 38% | % inhibition Apol 40' (DRC-2, concentration 20): 53% | % inhibition Apol 40' (DRC-2, concentration 40): 62% | % inhibition Apol 40' (DRC-2, concentration 80): 65% | % inhibition ApPOL 90' (DRC-2, concentration 2.5): 1.48% | % inhibition ApPOL 90' (DRC-2, concentration 5): 22% | % inhibition ApPOL 90' (DRC-2, concentration 10): 45% | % inhibition ApPOL 90' (DRC-2, concentration 20): 60% | % inhibition ApPOL 90' (DRC-2, concentration 40): 67% | % inhibition ApPOL 90' (DRC-2, concentration 80): 68% | % inhibition apPOL 180' (DRC-2, concentration 2.5): 11% | % inhibition apPOL 180' (DRC-2, concentration 5): 32% | % inhibition apPOL 180' (DRC-2, concentration 10): 53% | % inhibition apPOL 180' (DRC-2, concentration 20): 67% | % inhibition apPOL 180' (DRC-2, concentration 40): 71% | % inhibition apPOL 180' (DRC-2, concentration 80): 72%

Cc1nc(/N=N/c2ccc(C(=O)[O-])cc2)c(COP(=O)([O-])[O-])c(C=O)c1O.[Na+].[Na+].[Na+] [KU0261395]
DNA Pol [1]: 94 | DNA Pol (DNA Pol (primary screen value)): 94 | % inhibition Apo pol 10' (DRC-1, concentration 2.5): 68.7077% | % inhibition Apo pol 10' (DRC-1, concentration 5): 75.1682% | % inhibition Apo pol 10' (DRC-1, concentration 10): 82.6072% | % inhibition Apo pol 10' (DRC-1, concentration 20): 83.4638% | % inhibition Apo pol 10' (DRC-1, concentration 40): 87.7541% | % inhibition Apo pol 10' (DRC-1, concentration 80): 88.013% | % inhibition Apol 90' (DRC-1, concentration 2.5): 38.1069% | % inhibition Apol 90' (DRC-1, concentration 5): 43.9893% | % inhibition Apol 90' (DRC-1, concentration 10): 54.4878% | % inhibition Apol 90' (DRC-1, concentration 20): 58.7781% | % inhibition Apol 90' (DRC-1, concentration 40): 68.7531% | % inhibition Apol 90' (DRC-1, concentration 80): 75.4152% | % inhibition apPOL 180' (DRC-1, concentration 2.5): 26.3863% | % inhibition apPOL 180' (DRC-1, concentration 5): 31.3621% | % inhibition apPOL 180' (DRC-1, concentration 10): 42.4654% | % inhibition apPOL 180' (DRC-1, concentration 20): 47.0791% | % inhibition apPOL 180' (DRC-1, concentration 40): 59.2191% | % inhibition apPOL 180' (DRC-1, concentration 80): 68.3493% | % inhibition Apo pol 5' (DRC-2, concentration 2.5): 42% | % inhibition Apo pol 5' (DRC-2, concentration 5): 44% | % inhibition Apo pol 5' (DRC-2, concentration 10): 53% | % inhibition Apo pol 5' (DRC-2, concentration 20): 53% | % inhibition Apo pol 5' (DRC-2, concentration 40): 54% | % inhibition Apo pol 5' (DRC-2, concentration 80): 55% | % inhibition Apol 40' (DRC-2, concentration 2.5): 33% | % inhibition Apol 40' (DRC-2, concentration 5): 40% | % inhibition Apol 40' (DRC-2, concentration 10): 51% | % inhibition Apol 40' (DRC-2, concentration 20): 56% | % inhibition Apol 40' (DRC-2, concentration 40): 61% | % inhibition Apol 40' (DRC-2, concentration 80): 66% | % inhibition ApPOL 90' (DRC-2, concentration 2.5): 29% | % inhibition ApPOL 90' (DRC-2, concentration 5): 36% | % inhibition ApPOL 90' (DRC-2, concentration 10): 48% | % inhibition ApPOL 90' (DRC-2, concentration 20): 53% | % inhibition ApPOL 90' (DRC-2, concentration 40): 60% | % inhibition ApPOL 90' (DRC-2, concentration 80): 66% | % inhibition apPOL 180' (DRC-2, concentration 2.5): 20% | % inhibition apPOL 180' (DRC-2, concentration 5): 26% | % inhibition apPOL 180' (DRC-2, concentration 10): 39% | % inhibition apPOL 180' (DRC-2, concentration 20): 48% | % inhibition apPOL 180' (DRC-2, concentration 40): 56% | % inhibition apPOL 180' (DRC-2, concentration 80): 66%
